Test results taken from patent US20180228795A1, “COMBINATION THERAPY FOR CANCER” (Eli Lilly and Company, priority 2015, published 2018).

How the values were obtained:
Experiment in all cases: Antitumor effects in PDX mouse model of TNBC
Format in all cases: in vivo
[1] = system: PDX TNBC Model MAXF 449; details: PDX model MAXF 449; A 10 mg/kg SC BID 3 days on/4 off ×4; B 7.5 mg/kg PO BID×28; versus vehicle
Description: (§1) Establish PDX tumor models from viable human tumor tissue and serially passage in immunocompromised female mice a limited number of times. Using tumor fragments harvested from donor host animals, perform unilateral subcutaneous implants from a specific passage of the PDX tumor model on the flanks of the experimental animals. When tumor volumes reach approximately 150-250 mm^3 in size, randomize the animals by treatment arm by randomization techniques well known in the art and place into their respective treatment groups using 1 animal per treatment group (3 animals in an untreated group). Formulate CHK1 inhibitor, 5-(5-(2-(3-aminopropoxy)-6-methoxyphenyl)-1H-pyrazol-3-ylamino)pyrazine-2-carbonitrile methanesulfonate hydrate, (Compound A) every 14 days in 20% captisol (dissolved in water) and administer subcutaneously twice daily at a dose of 10 mg/kg on days 1/2/3 of a weekly cycle for 4 weeks (SC, BID [3 days on/4 off]×4). Formulate the PI3K/mTOR dual inhibitor, 8-[5-(1-hydroxy-1-methylethyl)pyridin-3-yl]-1-[(2S)-2-methoxypropyl]-3-methyl-1,3-dihydro-2H-imidazo[4,5-c]quinolin-2-one, (Compound B) weekly in 1% (HEC)/0.25% Tween 80 (Polysorbate 80)/0.05% Dow-Corning Antifoam 1510-US and administer by oral gavage twice-daily for 28 days (PO, BID×28) at a dose of 7.5 mg/kg. Dose combination treatment animals with both compounds according to the schedule described above for monotherapy, and dose vehicle treatment animals with vehicle according to the schedule for Compound B.
(§2) Test the combination of Compound A and Compound B, as well as their respective monotherapies, in 40 PDX models (Table 1) of TNBC. Assess antitumor efficacy of the treatment groups by measuring tumor volume via caliper measurements twice a week during the course of the study. Measure body weight twice weekly during the course of the study as a general indicator of tolerability.
(§3) Capture tumor size and body weight twice per week. Estimate tumor volume (V) by using the formula: V=(π/6)×L×W^2 where L=larger of measured diameter and W=smaller perpendicular diameter. Calculate relative tumor volume using the tumor volume measurement taken nearest to the last day of dosing for each animal (T), divided by the baseline tumor volume for that animal (T0), which is the volume recorded on or just prior to the first day of dosing, Y=T/T0. Calculate % ΔT/ΔC values using the formula % ΔT/ΔC=100(YT−1)/(YC−1), whereby YT or YC=geometric mean relative volume of the compound treated group or the control group, respectively. Tumor growth inhibition is observed in those instances where the calculated values for % ΔT/ΔC are less than 100% whereby greater inhibition results in smaller % ΔT/ΔC values. If ΔT<0, then a tumor regression value is calculated instead of % ΔT/ΔC whereby % Regression=100(YT−1). Note that negative values indicate regression. We collectively refer to % ΔT/ΔC and % Regression as % Response.
(§4) Examine relative tumor volume (final volume divided by baseline volume) on the last day of treatment or the last day on which data from all three treatment groups and vehicle is available, if it is earlier than the last day of treatment and at least 14 days after baseline. Expected additive relative volume is determined using the Bliss method (Bliss, C. I., Ann Appl Biol, 1939; 26(3):585-615). Specifically, denoting Y=relative volume, YExp=(Y1*Y2)/YV, where YExp=expected additive relative volume, Y1 and Y2 are the relative volumes in the single agent groups (Compound A and Compound B), and YV is the relative volume in the vehicle group. A range of additivity is defined around the expected additive relative volume via upper and lower limits as follows:
(§5) Yupper=max(2*YExp,YExp+0.2)
(§6) Ylower=min(YExp/2,YExp−0.2)
(§7) The upper limit of the range is the larger of 2-fold above or 20% above the expected additive relative volume, and the lower limit is the smaller of 2-fold below or 20% below the expected additive relative volume. […]

[2] = system: PDX TNBC Model ST996; details: A 10 mg/kg SC BID 3 days on/4 off ×4, B 7.5 mg/kg PO BID×28, versus vehicle
Description: as §1, §2, §3, §4, §5, §6, §7

[3] = system: PDX TNBC Model ST035; details: A 10 mg/kg SC BID 3 days on/4 off ×4, B 7.5 mg/kg PO BID×28, versus vehicle
Description: as §1, §2, §3, §4, §5, §6, §7

[4] = system: PDX TNBC Model CTG-1520; details: PDX model CTG-1520; A 10 mg/kg SC BID 3 days on/4 off ×4; B 7.5 mg/kg PO BID×28; versus vehicle
Description: as §1, §2, §3, §4, §5, §6, §7

[5] = system: PDX TNBC Model CTG-0012; details: PDX model CTG-0012; A 10 mg/kg SC BID 3 days on/4 off ×4; B 7.5 mg/kg PO BID×28; versus vehicle
Description: as §1, §2, §3, §4, §5, §6, §7

[6] = system: PDX TNBC Model CTG-1106; details: PDX model CTG-1106; A 10 mg/kg SC BID 3 days on/4 off ×4; B 7.5 mg/kg PO BID×28; versus vehicle
Description: as §1, §2, §3, §4, §5, §6, §7

[7] = system: PDX TNBC Model MAXF 583; details: PDX model MAXF 583; A 10 mg/kg SC BID 3 days on/4 off ×4; B 7.5 mg/kg PO BID×28; versus vehicle
Description: as §1, §2, §3, §4, §5, §6, §7

[8] = system: PDX TNBC Model CTG-0670; details: PDX model CTG-0670; A 10 mg/kg SC BID 3 days on/4 off ×4; B 7.5 mg/kg PO BID×28; versus vehicle
Description: as §1, §2, §3, §4, §5, §6, §7

[9] = system: PDX TNBC Model ST319; details: A 10 mg/kg SC BID 3 days on/4 off ×4, B 7.5 mg/kg PO BID×28, versus vehicle
Description: as §1, §2, §3, §4, §5, §6, §7

[10] = system: PDX TNBC Model ST848; details: A 10 mg/kg SC BID 3 days on/4 off ×4, B 7.5 mg/kg PO BID×28, versus vehicle
Description: as §1, §2, §3, §4, §5, §6, §7

[11] = system: PDX TNBC Model MAXF 508; details: PDX model MAXF 508; A 10 mg/kg SC BID 3 days on/4 off ×4; B 7.5 mg/kg PO BID×28; versus vehicle
Description: as §1, §2, §3, §4, §5, §6, §7

[12] = system: PDX TNBC Model ST1077; details: A 10 mg/kg SC BID 3 days on/4 off ×4, B 7.5 mg/kg PO BID×28, versus vehicle
Description: as §1, §2, §3, §4, §5, §6, §7

[13] = system: PDX TNBC Model MAXF 1384; details: PDX model MAXF 1384; A 10 mg/kg SC BID 3 days on/4 off ×4; B 7.5 mg/kg PO BID×28; versus vehicle
Description: as §1, §2, §3, §4, §5, §6, §7

| Structure (SMILES) | % Rsp. (% ΔT/ΔC or % Regression) [1] [%] | % Rsp. (% ΔT/ΔC or % Regression) [2] [%] | % Rsp. (% ΔT/ΔC or % Regression) [3] [%] | % Rsp. (% ΔT/ΔC or % Regression) [4] [%] | % Rsp. (% ΔT/ΔC or % Regression) [5] [%] | % Rsp. (% ΔT/ΔC or % Regression) [6] [%] | % Rsp. (% ΔT/ΔC or % Regression) [7] [%] | % Rsp. (% ΔT/ΔC or % Regression) [8] [%] | % Rsp. (% ΔT/ΔC or % Regression) [9] [%] | % Rsp. (% ΔT/ΔC or % Regression) [10] [%] | % Rsp. (% ΔT/ΔC or % Regression) [11] [%] | % Rsp. (% ΔT/ΔC or % Regression) [12] [%] | % Rsp. (% ΔT/ΔC or % Regression) [13] [%] |
| --- | --- | --- | --- | --- | --- | --- | --- | --- | --- | --- | --- | --- | --- |
| COc1cccc(OCCCN)c1-c1cc(Nc2cnc(C#N)cn2)n[nH]1.CS(=O)(=O)O [Compound A, 5-(5-(2-(3-aminopropoxy)-6-methoxyphenyl)-1H-pyrazol-3-ylamino)pyrazine-2-carbonitrile methanesulfonate hydrate] | −100.0 | 0.7 | 2.1 | 49.9 | 33.4 | −39.0 | 9.6 | 112.8 | 8.9 | −50.0 | −100.0 | 0.0 | 52.8 |
| CO[C@@H](C)Cn1c(=O)n(C)c2cnc3ccc(-c4cncc(C(C)(C)O)c4)cc3c21 [Compound B, 8-[5-(1-hydroxy-1-methylethyl)pyridin-3-yl]-1-[(2S)-2-methoxypropyl]-3-methyl-1,3-dihydro-2H-imidazo[4,5-c]quinolin-2-one] | 34.7 | 23.5 | 54.0 | 61.2 | 49.0 | −31.0 | 121.1 | 117.6 | 40.3 | 24.6 | 41.3 | 9.1 | 60.3 |
